Source: patent US10744127B2, “MDR-reversing 8-hydroxy-quinoline derivatives” (MAGYAR TUDOMÁNYOS AKADÉMIA TERMÉSZETTUDOMÁNYI KUTATÓKÖZPONT, priority 2016, dated 2020)
Like-named read-outs stand apart in the source and are kept apart here.

Key:
[1] = system: A431 and A431-B1 cell lines; assay: Selective toxicity in A431 and A431-B1 cell lines; assay type: cell-based, human; details: A431 versus P-gp-transfected A431-B1
Procedure: (§1) Cell survival was measured by the PrestoBlue® Cell Viability Reagent (Life Technologies, USA). Cells were seeded in 100 μl medium at a density of 5000 cells/well in 96-well plates; the serially diluted drug was added the following day. Cells were then incubated for 72 hours at 37° C. in 5% CO2; the drug containing medium was removed, and the PrestoBlue® reagent was added according to the manufacturer's instructions. Fluorescence of the cells was measured by a Perkin Elmer EnSpire multimode plate reader or Perkin Elmer Victor X3 microplate reader. Data were background corrected and normalized to untreated cells. Curves were fitted with the help of Prism software using the sigmoidal dose-response model. Curve fit statistics were used to determine IC50 values. Differences between the IC50 values of the respective cell lines were analyzed by two-sided […] unpaired Student's t test and results were considered statistically significant at a P value of <0.05 (*) or 0.01 (**).
(§2) Data on selective toxicity (expressed as Selectivity Ratio, SR) in two MDR models engineered by retroviral transfection of P-glycoprotein (A431/A431-B1 and MDCK II/MDCK II B1 cell lines) are presented in Table 3 and Table 4.
(§3) A431 is a human epidermoid carcinoma cell line. Its derivative, the A431-B1 cell line expresses P-gp due to retroviral transfection of the mdr1 gene Türk, D. et al (Türk, D. et al., 2009). MDCK II is a canine kidney cell line. MDCK II B1 was created by inserting the mdr1 gene with transposons [Pape V F S et al. 2015] Both cell express P-gp stably, and show a stable MDR phenotype. Culture conditions were identical as in the case of MES-SA cells.

[2] = system: MES-SA and multidrug-resistant MES-SA/Dx5 cell line; assay: Selective toxicity (ratio of IC50 in MES-SA to IC50 in MES-SA/Dx5) and activity index; assay type: cell-based, human
Text: Compounds having P-gp potentiated MDR-selective activity can be characterized by their inhibitory concentration (IC) with regard to a specific cancer cell line. Usually the IC value is given at a certain percentage ratio of non-inhibited molecules or surviving cells. For example an IC20 value of a compound on a cell line means that at this inhibitory concentration of the compound 80% of the cells are killed whereas 20% of the cells are still viable. A further characteristic of MDR-selective drugs is the selectivity ratio (SR), which is the ratio of the IC value measured in a non-multidrug resistant cell line to (i.e. divided by) the IC value measured in the corresponding transformed, multidrug-resistant cell line. The inverse value, the resistance ratio (RR) is calculated as the ratio of a compound's IC value against a multidrug resistant cell line divided by the parallel IC value of the same compound against a control non-multidrug resistant cell line. The Activity Index (AI) is calculated here as the ratio of the compound's selectivity ratio (SR) and the compound's IC50 value against the resistant cell. The AI reflects the level of simultaneous toxicity and selectivity towards multidrug-resistant cancer cells.
(§4) The human uterine sarcoma cell line MES-SA and its doxorubicin resistant counterpart MES-SA/Dx5 were obtained from ATCC (MES-SA: No. CRL-1976™, MES-SA-Dx5: No. CRL-1977™). MES-SA/Dx5 cells express high levels of P-gp, and therefore are multidrug resistant (MDR). Cells were cultured in DMEM supplemented with 10% FBS, 5 mmol/L glutamine and 50 unit/mL penicillin and streptomycin (Life Technologies).
as §1
Selectivity towards multidrug-resistant cells is expressed as the ratio of the IC50 value measured in the parental MES-SA and multidrug-resistant MES-SA/Dx5 cell line (Selectivity Ratio, SR).
A novel characteristic of the compounds presented in this invention is that they exert their selective cytotoxicity at low IC50 values. Simultaneous toxicity and selectivity towards multidrug-resistant cancer cells is reflected by the Activity Index (AI) of the compounds, which is the ratio of the selectivity ratio (SR) and the IC50 value on the resistant cell line.

MES-SA/Dx5 cell line = assay: Cytotoxicity, PrestoBlue cell viability assay, MES-SA/Dx5; assay type: cell-based; details: Homo sapiens
Procedure: as §4, §1

[3] = system: MES-SA and MES-SA/Dx5 cells; assay: Selective toxicity in the presence of the P-gp inhibitor tariquidar; assay type: cell-based, human; details: selectivity ratio in the presence of tariquidar (1 μM)
Procedure: In the presence of tariquidar (an inhibitor of P-gp function), the toxicity of the compounds selectively diminishes in multidrug-resistant MES-SA/Dx5 cells, while the toxicity is unchanged against parental MESSA cells, which is reflected by a decrease in the selectivity ratio (SR (TQ)).
To investigate the contribution of P-glycoprotein to the cytotoxic effect of a compound, cell survival was measured in the presence of the P-glycoprotein inhibitor tariquidar (1 μM). Tariquidar (CAS 206873-63-4) can be obtained e.g. from Selleck, Houston, USA.

MES-SA cell line = assay: Cytotoxicity, PrestoBlue cell viability assay, parental MES-SA; assay type: cell-based; details: Homo sapiens; parental MES-SA cell line (Table 2a)
Procedure: as §4, §1

[4] = system: P-gp-expressing MES-SA/Dx5 cells; assay: P-gp switch assay (Calcein AM); assay type: cell-based, human; details: MES-SA/Dx5, single dose at IC20 (killing 80% of the cells), surviving population at 80% confluence, Calcein AM
Procedure: One million P-gp-expressing MES-SA/Dx5 cells were plated in a T25 cell culture flask. After 24 hours the compound of interest was added directly to the cells at a concentration corresponding to the IC20 value (killing 80% of the cells). After 5 days the culture media was removed, the cells were washed with PBS and the culture medium was exchanged. Cells were monitored daily and the recovery was recorded. The medium was changed every 5 days until the confluence of the cells reached 80%. At 80% confluence the cells were removed by gentle trypsinization, counted by an automated cell counter and stained with Calcein AM, a cellular dye able to detect the function of P-gp (Homolya 1993). P-gp-positivity was evaluated based on the ability of P-gp-expressing cells to extrude Calcein AM.

[5] = system: MDCK II and MDCK II B1 cell lines; assay: Selective toxicity towards MDCK II and MDCK II B1 cell lines; assay type: cell-based, canine; details: MDCK II versus MDCK II B1
Procedure: as §1, §2, §3

[6] = MES-SA/Dx5 (Table 2b), read-out: IC50 (μM) Dx5
[7] = Mes-sa/Dx5 cell line, PrestoBlue assay, 72 hours (Table 1), read-out: IC50
[8] = MES-SA / MES-SA/Dx5, without tariquidar (Table 5)
[9] = multidrug-resistant MES-SA/Dx5 cell line (Table 2a), read-out: IC50 (nM) in MES-SA/Dx5 cell line

## O=C1NC2CCCCC2NC1c1cc(Cl)c2cccnc2c1O (mixture of isomers) [Example 22, (3R,4aS,8aS)-3-(5-Chloro-8-hydroxyquinolin-7-yl)octahydroquinoxalin-2(1H)-one and (3S,4aS,8aS)-3-(5-chloro-8-hydroxyquinolin-7-yl)octahydroquinoxalin-2(1H)-one]
[1]
  Selectivity Ratio (SR) (A431/A431-B1): 18.8

## C/C(=N\Nc1ccc2cccc(O)c2n1)c1ccccc1O [Example 1, (E/Z)-2-(2-(1-(2-Hydroxyphenyl)ethylidene)hydrazinyl)quinolin-8-ol]
other
  melting point: 225 to 228 °C

## C/C(=N\Nc1ccc2cccc(O)c2n1)c1ccccn1 [Example 2, (E/Z)-2-(2-(1-(Pyridine-2-yl)ethylidene)hydrazinyl)quinolin-8-ol]
other
  melting point: 213 to 214 °C

## C/C(=N\Nc1ccc2ccc(CN3CCCCC3)c(O)c2n1)c1ccccc1O [Example 4, (E/Z)-2-(2-(1-(2-Hydroxyphenyl)ethylidene)hydrazinyl)-7-(piperidin-1-ylmethyl)quinolin-8-ol]
[2]; MES-SA / MES-SA/Dx5 (Table 2b)
  SR: 5.9
other
  melting point: 184 to 187 °C
[1]
  Selectivity Ratio (SR) (A431/A431-B1): 11.7
MES-SA/Dx5 cell line; [6]
  IC50: 0.16 µM
MES-SA/Dx5 cell line; [7]
  IC50: 0.16 µM

## Oc1c(CN2CCCCC2)ccc2ccc(N/N=C/c3ccccn3)nc12 [Example 5, (E/Z)-7-(Piperidin-1-ylmethyl)-2-(2-(pyridine-2-ylmethylene)hydrazinyl)quinolin-8-ol]
[2]; [8]
  SR: 20.9
[3]
  SR (TQ): 1.2
MES-SA cell line
  IC50: 40500 nM
other
  melting point: 248 to 250 °C
[4]
  Fraction of P-gp-negative cells (P3) in the population: 67.6%
  Fraction of P-gp-positive cells (P4) in the population: 32.40%
MES-SA/Dx5 cell line; [9]
  IC50: 1.97 µM

## Oc1c(CNC2CCCCC2)cc(Cl)c2cccnc12 [Example 6, 5-Chloro-7-((cyclohexylamino)methyl)quinolin-8-ol]
other
  melting point: 123 to 125 °C
[1]
  Selectivity Ratio (SR) (A431/A431-B1): 11.5

## COc1ccc(CNCc2cc(Cl)c3cccnc3c2O)cc1 [Example 7, 5-Chloro-7-(((4-methoxybenzyl)amino)methyl)quinolin-8-ol]
[2]; [8]
  SR: 13.4
[3]
  SR (TQ): 1.3
other
  melting point: 125 to 127 °C
[1]
  Selectivity Ratio (SR) (A431/A431-B1): 12.6

## COc1ccccc1CNCc1cc(Br)c2cccnc2c1O [Example 8, 5-Bromo-7-(((2-methoxybenzyl)amino)methyl)quinolin-8-ol]
[2]; MES-SA / MES-SA/Dx5 (Table 2b)
  SR: 13.5
other
  melting point: 135 to 137 °C
MES-SA/Dx5 cell line; [6]
  IC50: 0.16 µM
MES-SA/Dx5 cell line; [7]
  IC50: 0.161 µM

## COc1ccc(CNCc2cc(Br)c3cccnc3c2O)cc1 [Example 10, 5-Bromo-7-(((4-methoxybenzyl)amino)methyl)quinolin-8-ol]
other
  melting point: 129 to 132 °C
[1]
  Selectivity Ratio (SR) (A431/A431-B1): 11.2

## Cl.Oc1c(CNCc2ccccc2F)cc(Cl)c2cccnc12 [Example 12, 5-Chloro-7-({[(2-fluorophenyl)methyl]amino}methyl)quinolin-8-ol Hydrochloride]
[5]
  Selectivity Ratio (SR) (MDCK II/MDCK II B1): 8.3

## Oc1c(C2NCCc3ccccc32)cc(Cl)c2cccnc12 (stereo not shown) [Example 13, 5-Chloro-7-(1,2,3,4-tetrahydroisoquinolin-1-yl)quinolin-8-ol]
[4]
  Fraction of P-gp-negative cells (P3) in the population: 88.00%
  Fraction of P-gp-positive cells (P4) in the population: 12.00%
MES-SA/Dx5 cell line; [7]
  IC50: 0.127 µM

## Oc1c(C2NCCc3ccccc32)cc(Br)c2cccnc12 (stereo not shown) [Example 14, 5-Bromo-7-(1,2,3,4-tetrahydroisoquinolin-1-yl)quinolin-8-ol]
[2]; MES-SA / MES-SA/Dx5 (Table 2b)
  SR: 7.8
[1]
  Selectivity Ratio (SR) (A431/A431-B1): 13.7
MES-SA/Dx5 cell line; [6]
  IC50: 0.13 µM
MES-SA/Dx5 cell line; [7]
  IC50: 0.13 µM

## O=[N+]([O-])c1cc(C2NCCc3ccccc32)c(O)c2ncccc12 (stereo not shown) [Example 15, 5-Nitro-7-(1,2,3,4-tetrahydroisoquinolin-1-yl)quinolin-8-ol]
[2]; MES-SA / MES-SA/Dx5 (Table 2b)
  SR: 23.8
[2]; [8]
  SR: 23.8
[3]
  SR (TQ): 1.4
MES-SA cell line
  IC50: 12400 nM
[4]
  Fraction of P-gp-negative cells (P3) in the population: 67.2%
  Fraction of P-gp-positive cells (P4) in the population: 32.80%
MES-SA/Dx5 cell line; [6]
  IC50: 0.59 µM
MES-SA/Dx5 cell line; [9]
  IC50: 0.594 µM

## COc1cc2c(cc1OC)C(c1cc(Cl)c3cccnc3c1O)NCC2 (stereo not shown) [Example 16, 5-Chloro-7-(6,7-dimethoxy-1,2,3,4-tetrahydroisoquinolin-1-yl)quinolin-8-ol]
[2]; [8]
  SR: 10.3
[3]
  SR (TQ): 0.9
[1]
  Selectivity Ratio (SR) (A431/A431-B1): 24.7

## Oc1c(C2NCCc3sccc32)ccc2cccnc12 (stereo not shown) [Example 18, 7-(4,5,6,7-Tetrahydrothieno[3,2-c]pyridin-4-yl)quinolin-8-ol]
[4]
  Fraction of P-gp-negative cells (P3) in the population: 80.6%
  Fraction of P-gp-positive cells (P4) in the population: 19.40%
MES-SA/Dx5 cell line; [7]
  IC50: 0.157 µM

## O=[N+]([O-])c1cc(C2NCCc3sccc32)c(O)c2ncccc12 (stereo not shown) [Example 19, 5-Nitro-7-(4,5,6,7-tetrahydrothieno[3,2-c]pyridin-4-yl)quinolin-8-ol]
[1]
  Selectivity Ratio (SR) (A431/A431-B1): 24.7

## Cc1ccc2ccc(C3NCCc4sccc43)c(O)c2n1 (stereo not shown) [Example 20]
[5]
  Selectivity Ratio (SR) (MDCK II/MDCK II B1): 10.0
[1]
  Selectivity Ratio (SR) (A431/A431-B1): 13.2

## COc1ccc(CNCc2cc([N+](=O)[O-])c3cccnc3c2O)c(OC)c1 [Example 28, 7-(((2,4-Dimethoxybenzyl)amino)methyl)-5-nitroquinolin-8-ol]
[2]; MES-SA / MES-SA/Dx5 (Table 2b)
  SR: 19.7
[2]; [8]
  SR: 19.7
[3]
  SR (TQ): 1.6
MES-SA cell line
  IC50: 8650 nM
other
  melting point: 206 to 209 °C
MES-SA/Dx5 cell line; [6]
  IC50: 0.44 µM
MES-SA/Dx5 cell line; [9]
  IC50: 0.442 µM

## COc1ccccc1CNCc1cc([N+](=O)[O-])c2cccnc2c1O [Example 29, 7-(((2-Methoxybenzyl)amino)methyl)-5-nitroquinolin-8-ol]
[2]; IC50 in MES-SA divided by IC50 in MES-SA/Dx5 (Table 2a)
  Selectivity Ratio (SR): 19.2
[5]
  Selectivity Ratio (SR) (MDCK II/MDCK II B1): 17.1
MES-SA cell line
  IC50: 40600 nM
other
  melting point: 199 to 203 °C
[1]
  Selectivity Ratio (SR) (A431/A431-B1): 25.1
MES-SA/Dx5 cell line; [9]
  IC50: 2.09 µM

## COc1ccc(CNCc2cc(S(C)(=O)=O)c3cccnc3c2O)c(OC)c1 [Example 37, 7-(((2,4-Dimethoxybenzyl)amino)methyl)-5-(methylsulfonyl)quinolin-8-ol]
[5]
  Selectivity Ratio (SR) (MDCK II/MDCK II B1): 8.9
[1]
  Selectivity Ratio (SR) (A431/A431-B1): 16.7
